# Reference: patent US11051515B2, “3-acyl-benzamides and their use as herbicides” (Bayer Aktiengesellschaft, priority 2017, dated 2021)
# Tests used:
# [1] = tested on: MATIN; test: Pre-emergence action against MATIN; assay type: in vivo, Matricaria inodora; details: Dosage 320 g/ha, pre-emergence
# Outline: (§1)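 Seeds sown in sandy loam in wood-fiber pots and covered with soil. Greenhouse growth; visual damage scored after 3 weeks versus untreated controls (100% = dead, 0% = like control).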
# [2] = tested on: AMARE; test: Pre-emergence action against AMARE; assay type: in vivo, Amaranthus retroflexus; details: pre-emergence, dosage 320 g/ha, scored visually after 3 weeks vs untreated controls
# Outline: as §1
# [3] = tested on: PHBPU; test: Post-emergence action against PHBPU; assay type: in vivo, Pharbitis purpurea; details: post-emergence, dosage 80 g/ha
# Outline: (§2)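 Weeds grown in sandy loam in greenhouse, treated at one-leaf stage (2–3 weeks after sowing) with WP or EC formulations sprayed as aqueous suspension/emulsion at 600 to […] water with 0.2% wetting agent. Visual rating after about 3 weeks versus untreated controls, as % herbicidal action (100% = plants dead, 0% = like control).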
# [4] = tested on: VIOTR; test: Pre-emergence action against VIOTR; assay type: in vivo, Viola tricolor; details: Dosage 320 g/ha, pre-emergence
# Outline: as §1
# [5] = tested on: ECHCG; test: Pre-emergence action against ECHCG; assay type: in vivo, Echinochloa crus-galli; details: pre-emergence, dosage 320 g/ha, scored visually after 3 weeks vs untreated controls
# Outline: as §1
# [6] = tested on: MATIN; test: Post-emergence action against MATIN; assay type: in vivo, Matricaria inodora; details: post-emergence, dosage 80 g/ha, visual assessment about 3 weeks after treatment vs untreated controls
# Outline: as §2
# [7] = tested on: AVEFA; test: Pre-emergence action against AVEFA; assay type: in vivo, Avena fatua; details: dosage 320 g/ha, scored visually after 3 weeks vs untreated controls
# Outline: as §1
# [8] = tested on: CYPES; test: Post-emergence action against CYPES; assay type: in vivo, Cyperus esculentus; details: post-emergence, dosage 80 g/ha, visual assessment about 3 weeks after treatment vs untreated controls
# Outline: as §2
# [9] = tested on: ALOMY; test: Pre-emergence action against ALOMY; assay type: in vivo, Alopecurus myosuroides; details: dosage 320 g/ha; pre-emergence; scored visually after 3 weeks vs untreated controls; 100% = plants have died, 0% = like control plants
# Outline: as §1
# [10] = tested on: POLCO; test: Post-emergence action against POLCO; assay type: in vivo, Polygonum convolvulus; details: post-emergence, dosage 80 g/ha
# Outline: as §2
# [11] = tested on: ABUTH; test: Pre-emergence action against ABUTH; assay type: in vivo, Abutilon theophrasti; details: pre-emergence, dosage 320 g/ha, scored visually after 3 weeks vs untreated controls
# Outline: as §1
# [12] = tested on: LOLRI; test: Pre-emergence action against LOLRI; assay type: in vivo, Lolium rigidum; details: dosage 320 g/ha, scored visually after 3 weeks vs untreated controls
# Description: Seeds of monocotyledonous and dicotyledonous weed plants and crop plants are laid out in sandy loam soil in wood-fiber pots and covered with soil. The compounds of the invention, formulated in the form of wettable powders (WP) or as emulsion concentrates (EC), are then applied to the surface of the covering soil in the form of an aqueous suspension or emulsion at a water application rate equating to […], with addition of 0.2% wetting agent. After the treatment, the pots are placed in a greenhouse and kept under good growth conditions for the trial plants. The damage to the test plants is scored visually after a test period of 3 weeks by comparison with untreated controls (herbicidal activity in percent (%): 100% activity=the plants have died, 0% activity=like control plants).
# [13] = tested on: STEME; test: Pre-emergence action against STEME; assay type: in vivo, Stellaria media; details: Dosage 320 g/ha, pre-emergence
# Outline: as §1
# [14] = tested on: ABUTH; test: Post-emergence action against ABUTH; assay type: in vivo, Abutilon theophrasti; details: post-emergence, dosage 80 g/ha, visual assessment about 3 weeks after treatment vs untreated controls
# Outline: as §2
# [15] = tested on: STEME; test: Post-emergence action against STEME; assay type: in vivo, Stellaria media; details: post-emergence, dosage 80 g/ha
# Outline: as §2
# [16] = tested on: VERPE; test: Pre-emergence action against VERPE; assay type: in vivo, Veronica persica; details: Dosage 320 g/ha, pre-emergence
# Outline: as §1
# [17] = tested on: SETVI; test: Pre-emergence action against SETVI; assay type: in vivo, Setaria viridis; details: pre-emergence, dosage 320 g/ha, scored visually after 3 weeks vs untreated controls
# Outline: as §1
# [18] = tested on: AVEFA; test: Post-emergence action against AVEFA; assay type: in vivo, Avena fatua; details: post-emergence, dosage 80 g/ha, visual assessment about 3 weeks after treatment vs untreated controls
# Outline: as §2
# [19] = tested on: PHBPU; test: Pre-emergence action against PHBPU; assay type: in vivo, Pharbitis purpurea; details: Dosage 320 g/ha, pre-emergence
# Outline: as §1
# [20] = tested on: VIOTR; test: Post-emergence action against VIOTR; assay type: in vivo, Viola tricolor; details: post-emergence, dosage 80 g/ha
# Outline: as §2
# [21] = tested on: ECHCG; test: Post-emergence action against ECHCG; assay type: in vivo, Echinochloa crus-galli; details: post-emergence, dosage 80 g/ha, visual assessment about 3 weeks after treatment vs untreated controls
# Outline: as §2
# [22] = tested on: ALOMY; test: Post-emergence action against ALOMY; assay type: in vivo, Alopecurus myosuroides; details: Dosage 80 g/ha, post-emergence
# Outline: as §2
# [23] = tested on: VERPE; test: Post-emergence action against VERPE; assay type: in vivo, Veronica persica; details: dosage 80 g/ha
# Outline: as §2
# [24] = tested on: CYPES; test: Pre-emergence action against CYPES; assay type: in vivo, Cyperus esculentus; details: Cyperus esculentus, 504 h; pre-emergence, dosage 320 g/ha, scored visually after 3 weeks vs untreated controls; read-out: Pre-emergence action against CYPES (herbicidal activity)
# Outline: as §1
smiles,measurement,setting,value
CCn1nnnc1NC(=O)c1ccc(C(F)(F)F)c(C(=O)C(C)C)c1Cl [2-140],Pre-emergence action against MATIN,[1],100%
same,Pre-emergence action against AMARE (herbicidal activity),[2],100%
same,Post-emergence action against PHBPU,[3],90
same,Pre-emergence action against VIOTR,[4],100%
same,Pre-emergence action against ECHCG (herbicidal activity),[5],100%
same,Post-emergence action against MATIN (herbicidal action in percent),[6],90%
same,Pre-emergence action against AVEFA (herbicidal activity),[7],80%
same,Post-emergence action against CYPES (herbicidal action in percent),[8],80%
same,Pre-emergence action against ALOMY (herbicidal activity in percent),[9],90%
same,Post-emergence action against POLCO,[10],80
same,Pre-emergence action against ABUTH (herbicidal activity),[11],100%
same,Pre-emergence action against LOLRI (herbicidal activity),[12],90%
same,Pre-emergence action against STEME,[13],100%
same,Post-emergence action against ABUTH (herbicidal action in percent),[14],100%
same,Post-emergence action against STEME,[15],100
same,Pre-emergence action against VERPE,[16],100%
same,"SETVI (Table B8, pre-emergence herbicidal activity)",[17],100%
same,Post-emergence action against AVEFA (herbicidal action in percent),[18],80%
same,Pre-emergence action against PHBPU,[19],100%
same,Post-emergence action against VIOTR,[20],100
same,Post-emergence action against ECHCG (herbicidal action in percent),[21],100%
same,Post-emergence action against ALOMY,[22],80%
same,Post-emergence action against VERPE,[23],80
Cn1nnnc1NC(=O)c1ccc(C(F)(F)F)c(C(=O)C(C)(C)C)c1Cl [1-143],pest or weed control at 320 g/ha,"[1]; Tripleurospermum inodorum, 504 h",100%
same,pest or weed control at 320 g/ha,"[2]; Amaranthus retroflexus, 504 h, read-out: Pre-emergence action against AMARE (herbicidal activity)",100%
same,pest or weed control at 320 g/ha,"[4]; Viola tricolor, 504 h",100%
same,pest or weed control at 320 g/ha,"[5]; Echinochloa crus-galli, 504 h, read-out: Pre-emergence action against ECHCG (herbicidal activity)",100%
same,pest or weed control at 320 g/ha,"[11]; Abutilon theophrasti, 504 h, read-out: Pre-emergence action against ABUTH (herbicidal activity)",100%
same,pest or weed control at 320 g/ha,"[12]; Lolium rigidum, 504 h, read-out: Pre-emergence action against LOLRI (herbicidal activity)",80%
same,pest or weed control at 320 g/ha,"[13]; Stellaria media, 504 h",100%
same,pest or weed control at 80 g/ha,"[15]; Stellaria media, 504 h",100%
same,pest or weed control at 320 g/ha,"[16]; Veronica persica, 504 h",100%
same,pest or weed control at 320 g/ha,"[17]; Setaria viridis, 504 h, read-out: SETVI (Table B8, pre-emergence herbicidal activity)",90%
same,pest or weed control at 320 g/ha,[24],90%
